Results published in US20230286958A1, “PLASMA KALLIKREIN INHIBITORS” (Merck Sharp & Dohme LLC, priority 2020, published 2023).

Columns and labels:
Human plasma kallikrein = Human plasma kallikrein (Homo sapiens (Human), UniProt P03952); assay: Kallikrein Assay (fluorogenic substrate Acetyl-K-P-R-AFC); format: biochemical; conditions: Plasma Kallikrein (PKal)
Description: (§1) The effectiveness of a compound of the present invention as an inhibitor of Kallikrein can be determined using a relevant purified serine protease, and an appropriate synthetic substrate. The rate of hydrolysis of the chromogenic or fluorogenic substrate by the relevant serine protease was measured both in the absence and presence of compounds of the present invention. Assays were conducted at room temperature or at 37° C. […] A decrease in the rate of fluorescence change in the presence of inhibitor is indicative of enzyme inhibition. Such methods are known to one skilled in the art. The results of this assay are expressed as the half-maximal inhibitory concentrations (IC50), or the inhibitory constant, Ki.
Kallikrein determinations were made in 50 mM HEPES buffer at pH 7.4 containing 150 mM NaCl, 5 mM CaC12, and 0.1% PEG 8000 (polyethylene glycol; Fisher Scientific). Determinations were made using purified Human plasma kallikrein at a final concentration of 0.5 nM (Enzyme Research Laboratories) and the synthetic substrate, Acetyl-K-P-R-AFC (Sigma # C6608) at a concentration of […].
Times required to achieve equilibration between enzyme and inhibitor were determined in control experiments. […] IC50 was determined by inflection point from a four parameter logistic curve fit. Ki was calculated using the Cheng Prusoff equation, Ki = IC50/(1+([S]/Km)).

human Factor XIa = human Factor XIa (Homo sapiens (Human), UniProt P03951); assay: Factor XIa Assay (fluorogenic substrate GPR-AFC); format: biochemical; conditions: Factor XIa (FXIa)
Description: as §1, with “Coagulation Factor XIa” for “Kallikrein”
Compounds were pre-incubated for 30 minutes at 25° C. with human (0.04 nM) Factor XIa in 50 mM HEPES buffer with 150 mM sodium chloride, 5 mM calcium chloride, 0.1% PEG 8000, pH 7.4. […] The % inhibition for each data point was calculated from the data and analyzed using the log (inhibitor) vs. response four parameters equation to determine the half-maximal inhibitory concentrations (IC50). The IC50 were converted to equilibrium inhibitory constants (Ki) using the Cheng-Prusoff equation.

Sequence of Human plasma kallikrein (P03952 391-638): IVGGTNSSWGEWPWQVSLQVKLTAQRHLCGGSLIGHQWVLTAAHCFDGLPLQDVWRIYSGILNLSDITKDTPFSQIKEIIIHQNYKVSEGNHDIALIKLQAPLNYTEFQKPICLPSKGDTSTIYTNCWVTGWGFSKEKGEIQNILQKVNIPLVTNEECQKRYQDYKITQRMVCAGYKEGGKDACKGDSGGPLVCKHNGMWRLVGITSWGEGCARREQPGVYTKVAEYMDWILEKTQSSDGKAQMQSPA
Sequence of Human plasma kallikrein (P03952 20-390 partner): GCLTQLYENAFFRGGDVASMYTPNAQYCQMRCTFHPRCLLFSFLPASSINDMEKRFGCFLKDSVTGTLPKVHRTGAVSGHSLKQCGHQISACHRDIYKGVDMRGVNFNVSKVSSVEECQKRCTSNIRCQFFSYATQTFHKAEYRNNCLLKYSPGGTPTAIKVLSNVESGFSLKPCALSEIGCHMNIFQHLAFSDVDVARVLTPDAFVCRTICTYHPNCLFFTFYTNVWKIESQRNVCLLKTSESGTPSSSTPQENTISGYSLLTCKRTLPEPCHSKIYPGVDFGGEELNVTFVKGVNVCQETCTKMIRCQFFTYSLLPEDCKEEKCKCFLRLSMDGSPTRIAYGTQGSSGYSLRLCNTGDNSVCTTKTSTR
Sequence of human Factor XIa (P03951 388-625 limits assumed): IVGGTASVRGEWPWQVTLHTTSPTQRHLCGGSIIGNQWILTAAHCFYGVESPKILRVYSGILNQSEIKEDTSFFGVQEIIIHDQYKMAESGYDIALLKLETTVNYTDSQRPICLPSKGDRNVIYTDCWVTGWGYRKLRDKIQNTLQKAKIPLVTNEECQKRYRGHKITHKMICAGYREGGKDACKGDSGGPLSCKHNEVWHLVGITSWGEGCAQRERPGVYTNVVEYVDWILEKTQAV
Sequence of human Factor XIa (P03951 19-387 partner limits assumed): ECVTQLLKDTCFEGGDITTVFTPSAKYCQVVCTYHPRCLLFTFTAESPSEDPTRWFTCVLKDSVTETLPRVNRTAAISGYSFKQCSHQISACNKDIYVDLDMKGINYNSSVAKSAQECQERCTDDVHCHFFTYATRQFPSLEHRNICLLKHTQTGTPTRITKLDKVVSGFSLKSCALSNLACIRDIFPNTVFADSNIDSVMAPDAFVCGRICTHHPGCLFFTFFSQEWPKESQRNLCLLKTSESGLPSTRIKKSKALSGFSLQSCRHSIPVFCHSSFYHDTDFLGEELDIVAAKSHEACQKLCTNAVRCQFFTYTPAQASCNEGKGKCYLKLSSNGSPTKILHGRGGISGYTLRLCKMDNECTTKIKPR

IC50 (Human plasma kallikrein) [nM]	IC50 (human Factor XIa) [nM]	Compound
0.7	1040	Cc1ncc(-c2c(C(F)F)ccc(Cl)c2F)nc1C(=O)Nc1cnn([C@H](C)c2cnc(N3C[C@H]4C[C@H]4C3=O)c(N)c2)c1 [Example 190]
7.7	> 10000	Cc1ncc(-c2c(C(F)F)ccc(Cl)c2F)nc1C(=O)Nc1cnn(C(C)c2ncc(N3C[C@H]4C[C@H]4C3=O)cc2F)c1 (single isomer, unassigned) [Example 137, 6-(3-Chloro-6-(difluoromethyl)-2-fluorophenyl)-N-(1-((S or R)-1-(3-fluoro-5-((1R,5S)-2-oxo-3-azabicyclo[3.1.0]hexan-3-yl)pyridin-2-yl)ethyl)-1H-pyrazol-4-yl)-3-methylpyrazine-2-carboxamide]
0.2	48	Cc1nc(C(C)n2cc(NC(=O)c3nc(-c4c(C(F)F)ccc(Cl)c4F)cnc3CO)cn2)cnc1N1C[C@H]2C[C@H]2C1=O (single isomer, unassigned) [Example 197, 6-(3-Chloro-6-(difluoromethyl)-2-fluorophenyl)-3-(hydroxymethyl)-N-(1-((S or R)-1-(6-methyl-5-((1R,5S)-2-oxo-3-azabicyclo[3.1.0]hexan-3-yl)pyrazin-2-yl)ethyl)-1H-pyrazol-4-yl)pyrazine-2-carboxamide]
5	903	Cc1cc(C(C)n2cc(NC(=O)c3nc(-c4c(C(F)F)ccc(Cl)c4F)cnc3C(C)O)cn2)nnc1N1C[C@H]2C[C@H]2C1=O (single isomer, unassigned) [Example 231, 6-(3-Chloro-6-(difluoromethyl)-2-fluorophenyl)-3-((R or S)-1-hydroxyethyl)-N-(1-((R or S)-1-(5-methyl-6-((1R,5S)-2-oxo-3-azabicyclo[3.1.0]hexan-3-yl)pyridazin-3-yl)ethyl)-1H-pyrazol-4-yl)pyrazine-2-carboxamide]
14.2	5260	Cc1cc(C(C)n2cc(NC(=O)c3cc(-c4c(C(F)F)ccc(Cl)c4F)nnc3C)cn2)cnc1N1C[C@H]2C[C@H]2C1=O (single isomer, unassigned) [Example 122, 6-(3-Chloro-6-(difluoromethyl)-2-fluorophenyl)-3-methyl-N-(1-((R or S)-1-(5-methyl-6-((1R,5S)-2-oxo-3-azabicyclo[3.1.0]hexan-3-yl)pyridin-3-yl)ethyl)-1H-pyrazol-4-yl)pyridazine-4-carboxamide]
6	6560	Cc1ncc(-c2c(C(F)F)ccc(Cl)c2F)nc1C(=O)Nc1cnn(C(C)c2cnc(N3C[C@H]4C[C@H]4C3=O)c3c2OC(F)(F)O3)c1 (single isomer, unassigned) [Example 246, 6-(3-Chloro-6-(difluoromethyl)-2-fluorophenyl)-N-(1-((R or S)-1-(2,2-difluoro-4-((1R,5S)-2-oxo-3-azabicyclo[3.1.0]hexan-3-yl)-[1,3]dioxolo[4,5-c]pyridin-7-yl)ethyl)-1H-pyrazol-4-yl)-3-methylpyrazine-2-carboxamide]
0.2	–	Cc1cc(C(C)n2cc(NC(=O)c3nc(-c4c(C(F)F)ccc(Cl)c4F)cnc3CO)cn2)cnc1N1C[C@H]2C[C@H]2C1=O (single isomer, unassigned) [Example 199, 6-(3-Chloro-6-(difluoromethyl)-2-fluorophenyl)-3-(hydroxymethyl)-N-(1-((S or R)-1-(5-methyl-6-((1R,5S)-2-oxo-3-azabicyclo[3.1.0]hexan-3-yl)pyridin-3-yl)ethyl)-1H-pyrazol-4-yl)pyrazine-2-carboxamide]
0.2	–	Cc1cc(C(C)n2cc(NC(=O)c3nc(-c4c(C(F)F)ccc(Cl)c4F)cnc3CO)cn2)cnc1N1C[C@H]2C[C@H]2C1=O (single isomer, unassigned) [Example 200, 6-(3-Chloro-6-(difluoromethyl)-2-fluorophenyl)-3-(hydroxymethyl)-N-(1-((R or S)-1-(5-methyl-6-((1R,5S)-2-oxo-3-azabicyclo[3.1.0]hexan-3-yl)pyridin-3-yl)ethyl)-1H-pyrazol-4-yl)pyrazine-2-carboxamide]

More lines, now with the values behind:

Compound	IC50 (Human plasma kallikrein) [nM]	IC50 (human Factor XIa) [nM]
Cc1nc(N2CCN(C)C2=O)ncc1[C@H](C)n1cc(NC(=O)c2nc(-c3c(C(F)F)ccc(Cl)c3F)cnc2C)cn1 [Example 207, (S)-6-(3-Chloro-6-(difluoromethyl)-2-fluorophenyl)-3-methyl-N-(1-(1-(4-methyl-2-(3-methyl-2-oxoimidazolidin-1-yl)pyrimidin-5-yl)ethyl)-1H-pyrazol-4-yl)pyrazine-2-carboxamide]	8.6	3280
Cc1nc(N2C[C@H]3C[C@H]3C2=O)ncc1Cn1cc(NC(=O)c2nc(-c3c(C(F)F)ccc(Cl)c3F)cnc2C)nn1 [Example 183, 6-(3-Chloro-6-(difluoromethyl)-2-fluorophenyl)-3-methyl-N-(1-((4-methyl-2-((1R,5S)-2-oxo-3-azabicyclo[3.1.0]hexan-3-yl)pyrimidin-5-yl)methyl)-1H-1,2,3-triazol-4-yl)pyrazine-2-carboxamide]	30.6	> 10000
CC(c1cnc(N2C[C@H]3C[C@H]3C2=S)nc1)n1cc(NC(=O)c2cncc(-c3c(C(F)F)ccc(Cl)c3F)n2)cn1 (single isomer, unassigned) [Example 32, 6-(3-Chloro-6-(difluoromethyl)-2-fluorophenyl)-N-(1-((R or S)-1-(2-((1R,5S)-2-thioxo-3-azabicyclo[3.1.0]hexan-3-yl)pyrimidin-5-yl)ethyl)-1H-pyrazol-4-yl)pyrazine-2-carboxamide]	16.4	> 10000
CCc1nc(C(C)n2cc(NC(=O)c3cncc(-c4c(C(F)F)ccc(Cl)c4F)n3)cn2)cnc1N1C[C@H]2C[C@H]2C1=O (single isomer, unassigned) [Example 55, 6-(3-Chloro-6-(difluoromethyl)-2-fluorophenyl)-N-(1-((S or R)-1-(6-ethyl-5-((1R,5S)-2-oxo-3-azabicyclo[3.1.0]hexan-3-yl)pyrazin-2-yl)ethyl)-1H-pyrazol-4-yl)pyrazine-2-carboxamide]	5.8	5360
CC(c1cnc(N2CC3CC3C2=O)nc1)n1cc(NC(=O)c2cncc(-c3c(OC(F)F)ccc(Cl)c3F)n2)cn1 (single isomer, unassigned) [Example 73, 6-(3-Chloro-6-(difluoromethoxy)-2-fluorophenyl)-N-(1-((S or R)-1-(2-((1S,5R or 1R,5S)-2-oxo-3-azabicyclo[3.1.0]hexan-3-yl)pyrimidin-5-yl)ethyl)-1H-pyrazol-4-yl)pyrazine-2-carboxamide]	23.1	2270
CCc1nc(C(C)n2cc(NC(=O)c3cncc(-c4c(C(F)F)ccc(Cl)c4F)n3)cn2)cnc1N1C[C@H]2C[C@H]2C1=O (single isomer, unassigned) [Example 56, 6-(3-Chloro-6-(difluoromethyl)-2-fluorophenyl)-N-(1-((R or S)-1-(6-ethyl-5-((1R,5S)-2-oxo-3-azabicyclo[3.1.0]hexan-3-yl)pyrazin-2-yl)ethyl)-1H-pyrazol-4-yl)pyrazine-2-carboxamide]	1.5	> 10000
Cc1nc(N2C[C@@H]3C[C@@H]3C2=O)ncc1Cn1cc(NC(=O)c2nc(-c3c(C(F)F)ccc(Cl)c3F)cnc2C)cn1 [Example 34, 6-(3-Chloro-6-(difluoromethyl)-2-fluorophenyl)-3-methyl-N-(1-((4-methyl-2-((1S,5R)-2-oxo-3-azabicyclo[3.1.0]hexan-3-yl)pyrimidin-5-yl)methyl)-1H-pyrazol-4-yl)pyrazine-2-carboxamide]	19.3	2890
